Experimental data as given in patent publication US12215093B2, “Bicyclic carboxamides and methods of use thereof” (Tempest Therapeutics, Inc., priority 2018, dated 2025).

Legend:
[1] = target: EP2 (Homo sapiens, UniProt P43116);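 also: functional calcium flux assay in stably transfected HEK293 cells expressing EP2 coupled via a promiscuous G protein, clytin luminescence read as area under the curve, 30 min compound preincubation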
[2] = target: T1, EP4 (Homo sapiens, UniProt P35408); test: Functional calcium flux assay, EP4; format: cell-based; conditions: stably transfected HEK293 cells; PGE2 10 nM; read-out: EP4 Ca2+-flux assay IC50
T1 construct: host or cells: stably transfected HEK293 cells co-expressing a promiscuous G protein and a clytin variant
T1 sequence (P35408 whole entry): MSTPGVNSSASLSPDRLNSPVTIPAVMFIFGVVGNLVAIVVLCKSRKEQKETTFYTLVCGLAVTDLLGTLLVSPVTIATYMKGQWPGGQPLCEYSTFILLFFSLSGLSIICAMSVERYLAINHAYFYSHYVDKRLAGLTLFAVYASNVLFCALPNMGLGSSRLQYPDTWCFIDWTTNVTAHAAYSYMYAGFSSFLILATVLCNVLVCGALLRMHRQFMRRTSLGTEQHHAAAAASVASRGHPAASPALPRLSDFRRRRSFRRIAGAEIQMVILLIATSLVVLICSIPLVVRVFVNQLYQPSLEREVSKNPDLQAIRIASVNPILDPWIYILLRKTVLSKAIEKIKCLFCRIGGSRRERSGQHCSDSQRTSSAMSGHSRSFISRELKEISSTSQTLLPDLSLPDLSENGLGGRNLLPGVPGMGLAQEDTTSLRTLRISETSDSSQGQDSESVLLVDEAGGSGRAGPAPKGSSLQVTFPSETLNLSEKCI

EP2, sequence (P43116 whole entry): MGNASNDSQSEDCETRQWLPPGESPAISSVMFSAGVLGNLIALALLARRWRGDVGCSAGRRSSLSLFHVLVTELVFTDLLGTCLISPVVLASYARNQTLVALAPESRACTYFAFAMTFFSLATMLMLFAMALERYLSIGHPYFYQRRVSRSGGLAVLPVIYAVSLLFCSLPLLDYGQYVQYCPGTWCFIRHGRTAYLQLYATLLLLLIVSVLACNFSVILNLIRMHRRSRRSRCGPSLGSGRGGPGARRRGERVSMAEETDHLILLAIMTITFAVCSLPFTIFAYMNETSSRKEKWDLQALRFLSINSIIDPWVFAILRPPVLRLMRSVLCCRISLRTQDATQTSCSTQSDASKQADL

Compound	IC50 [1] [nM]	IC50 [2] [nM]
O=C(NC1CC2(C1)CC(C(=O)O)C2)c1ccc(F)c2ccn(Cc3ccc4cc(Br)ccc4c3)c12 (stereo not drawn) [Example 42, (Sa)-6-(1-((6-bromonaphthalen-2-yl)methyl)-4-fluoro-1H-indole-7-carboxamido)spiro[3.3]heptane-2-carboxylic acid]	37	< 1
O=C(NC1CC2(C1)CC(C(=O)O)C2)c1ccc(F)c2ccn(Cc3ccc4ccc(Br)cc4c3)c12 (stereo not drawn) [Example 44, (Sa)-6-(1-((7-bromonaphthalen-2-yl)methyl)-4-fluoro-1H-indole-7-carboxamido)spiro[3.3]heptane-2-carboxylic acid]	30	< 1
COc1cc(-c2ccc(Cn3ccc4c(F)ccc(C(=O)NC5CC6(C5)CC(C(=O)O)C6)c43)cc2)ccc1F (stereo not drawn) [Example 46, (Sa)-6-(4-fluoro-1-((4’-fluoro-3’-methoxy-[1,1′-biphenyl]-4-yl)methyl)-1H-indole-7-carboxamido)spiro[3.3]heptane-2-carboxylic acid]	88	< 1
COc1ccc(-c2ccc(Cn3ccc4c(F)ccc(C(=O)NC5CC6(C5)CC(C(=O)O)C6)c43)cc2)cc1F (stereo not drawn) [Example 47, (Sa)-6-(4-fluoro-1-((3’-fluoro-4’-methoxy-[1,1′-biphenyl]-4-yl)methyl)-1H-indole-7-carboxamido)spiro[3.3]heptane-2-carboxylic acid]	79	< 1
CCOc1cc(-c2ccc(Cn3ccc4c(F)ccc(C(=O)NC5CC6(C5)CC(C(=O)O)C6)c43)cc2)ccn1 (stereo not drawn) [Example 48, (Sa)-6-(1-(4-(2-ethoxypyridin-4-yl)benzyl)-4-fluoro-1H-indole-7-carboxamido)spiro[3.3]heptane-2-carboxylic acid]	27	< 1
O=C(NC1CC2(C1)CC(C(=O)O)C2)c1ccc(F)c2ccn(Cc3ccc(-c4cccc(OC(F)F)c4)cc3)c12 (stereo not drawn) [Example 50, (Sa)-6-(1-((3’-(difluoromethoxy)-[1,1′-biphenyl]-4-yl)methyl)-4-f1uoro-1H-indole-7-carboxamido)spiro[3.3]heptane-2-carboxylic acid]	67	< 1

Stronger by IC50 [1], values ahead:

IC50 [1] [nM]	IC50 [2] [nM]	Compound
< 25	< 1	COc1ccc2cc(Cn3ccc4c(F)ccc(C(=O)NC5CC6(C5)CC(C(=O)O)C6)c43)ccc2c1 (stereo not drawn) [Example 38, (Sa)-6-(4-fluoro-1-((6-methoxynaphthalen-2-yl)methyl)-1H-indole-7-carboxamido)spiro[3.3]heptane-2-carboxylic acid]
< 25	< 1	COc1ccc2ccc(Cn3ccc4c(F)ccc(C(=O)NC5CC6(C5)CC(C(=O)O)C6)c43)cc2c1 (stereo not drawn) [Example 40, (Sa)-6-(4-fluoro-1-((7-methoxynaphthalen-2-yl)methyl)-1H-indole-7-carboxamido)spiro[3.3]heptane-2-carboxylic acid]
< 25	< 1	O=C(NC1CC2(C1)CC(C(=O)O)C2)c1ccc(F)c2ccn(Cc3ccc4c(Br)cccc4c3)c12 (stereo not drawn) [Example 43]
< 25	< 1	COc1cc(C#N)cc(-c2ccc(Cn3ccc4c(F)ccc(C(=O)NC5CC6(C5)CC(C(=O)O)C6)c43)cc2)c1 (stereo not drawn) [Example 49, (Sa)-6-(1-((3’-cyano-5’-methoxy-[1,1′-biphenyl]-4-yl)methyl)-4-fluoro-1H-indole-7-carboxamido)spiro[3.3]heptane-2-carboxylic acid]
< 25	< 1	COc1ccc(-c2ccc(Cn3ccc4c(F)ccc(C(=O)NC5CC6(C5)CC(C(=O)O)C6)c43)cc2)cc1 (stereo not drawn) [Example 51, (Sa)-6-(4-fluoro-1-((4’-methoxy-[1,1′-biphenyl]-4-yl)methyl)-1H-indole-7-carboxamido)spiro[3.3]heptane-2-carboxylic acid]
< 25	< 1	COc1cc(F)cc(-c2ccc(Cn3ccc4c(F)ccc(C(=O)NC5CC6(C5)CC(C(=O)O)C6)c43)cc2)c1 (stereo not drawn) [Example 53, (Sa)-6-(4-fluoro-1-((3’-fluoro-5’-methoxy-[1,1′-biphenyl]-4-yl)methyl)-1H-indole-7-carboxamido)spiro[3.3]heptane-2-carboxylic acid]
